Laboratory results from US8399493B2, “Pyridinone derivatives and their use as positive allosteric modulators of mGluR2-receptors” (Janssen Pharmaceuticals, Inc., priority 2004, dated 2013).

Columns and labels:
Male C57BL6/j mice [1] = experiment: Amphetamine-induced locomotor activity in mice (amphetamine model of schizophrenia); format: in vivo; details: 200 mg/kg i.p., amphetamine 3.0 mg/kg s.c., distance traveled over 60 minutes, FIG. 3
Excerpt: Amphetamine-induced increases in locomotor ambulation are well known and are widely used as a model of the positive symptoms of schizophrenia. This model is based on evidence that amphetamine increases motor behaviors and can induce a psychotic state in humans (Yui et al. (2000) Ann NY Acad Sci 914:1-12). Further, it is well known that amphetamine-induced increases in locomotor activity are blocked by antipsychotics drugs that are effective in the treatment of schizophrenia (Arnt (1995) Eur J Pharmacol 283:55-62). […]
(§1) The effects of compounds on PCP- or amphetamine-induced locomotor activation in mice were tested. […] Locomotor activity (ambulations) was monitored by a videotracking system (VideoTrack, Viewpoint, Champagne au Mont d'Or, France) that recorded the ambulatory movements of mice. […] On test days, test compounds (200 mg/kg i.p. (intraperitoneal)) or vehicle were administered immediately before the PCP (5 mg/kg s.c. (sub-cutaneous), amphetamine (3.0 mg/kg s.c.) or saline injection. Mice were placed into the locomotor boxes immediately after the PCP, amphetamine or saline vehicle injection and their locomotor activity, defined as the distance traveled in centimeters (cm), was measured for 60 minutes. […]
Statistical analyses were performed using GraphPad PRISM statistical software (GraphPad, San Diego, Calif., USA). Data were analyzed using unpaired t-tests. […]

native rat mGluR2 = target: T1, native rat mGluR2 (Rattus norvegicus, UniProt P31421); experiment: [35S]GTPγS binding assay using cortical rat brain membranes; format: biochemical; details: for Activity: left-ward shift of agonist mGluR2 concentration-response curve: selective mGluR2 agonist such as LY379268, rat cortical membranes, 3 or 10 μM of positive allosteric modulator
T1 construct: from tissue; host or cells: rat brain cortex membranes (Sprague-Dawley rats, Charles River Laboratories)
Excerpt: The [^35S]GTPγS binding is a functional membrane-based assay used to study G-protein coupled receptor (GPCR) function. This method is using a binding assay to assess the initial step in receptor-mediated G protein activation in membranes prepared from cells expressing recombinant GPCR or using membranes from discrete area of the rat brain. In brief, the assay is measuring the activation of G proteins by catalyzing the exchange of guanosine 5′-diphosphate (GDP) by guanosine 5′-triphosphate (GTP) at the α subunit. The GTP-bounded G proteins dissociate into two subunits, Gα-GTP and Gβγ, which in turn regulate intracellular enzymes and ion channels. GTP is rapidly hydrolysed by the Gα-subunit (GTPases) and the G protein is deactivated and ready for new GTP exchange cycle (Harper (1998) Curr Protoc Pharmacol 2.6.1-10, John Wiley & Sons, Inc.). [^35S]GTPγS, a non-hydrolyzed analogue of GTP, is used for this purpose.
This method is widely used to study receptor activation of G protein in membranes prepared from rat brain tissue, including mGluR2 receptors (Schaffhauser et al 2003, Pinkerton et al, 2004). mGluR2 receptors are expressed in the rat brain cortex (Mutel et al (1998) J. Neurochem. 71:2558-64; Schaffhauser et al (1998) Mol. Pharmacol. 53:228-33) and are coupled to Gαi-protein, a preferential coupling for this method.
[^35S]GTPγS binding assay using cortical rat brain membranes preparation was used and adapted from Schaffhauser et al ((2003) Mol. Pharmacol. 4:798-810) for the detection of the positive allosteric modulator properties of the compounds of this invention on native rat mGluR2. In order to eliminate the possible interference with group III Gαi-protein coupled mGluRs (mGluR4, mGluR7, mGluR8; mGluR6 is not expressed in the cortex (Laurie et al (1997) Neuropharmacol. 36:145-52)), the potentiation of the response to a selective mGluR2 agonist, such as DCG-IV (Cartmell et al. (1998) Br. J. Pharmacol. 123(3):497-504) or LY379268 (Monn et al. (1999) J. Med. Chem 42:1027-40), by compounds described in the present invention was performed.
Cortices were dissected out from brains of 200-300 g Sprague-Dawley rats (Charles River Laboratories, L'Arbresle, France). Tissues were homogenized in 6 volumes (vol/wt) of 10% sucrose at 4° C. using a glass-teflon homogenizer. The homogenate was centrifuged at 1250 g for 10 min, and the supernatant was centrifuged at 40,000 g for 20 min (4° C.). The pellet was resuspended in 25 ml water using a Polytron disrupter (Kinematica AG, Luzern, Switzerland) and centrifuged for 10 min at 3000 g. (4° C.). The supernatant was centrifuged at 40,000 g for 20 min (4° C.). The supernatant was discarded and the pellet washed twice by resuspension in 10 volumes 5 mM HEPES-KOH, pH 7.4. The homogenate was frozen and thawed twice and centrifuged at 40,000 g for 20 min. The final pellet was resuspended in 5 mM HEPES-KOH, pH 7.4 and stored at −80° C. before its use. Protein concentration was determined by the Bradford method (Bio-Rad protein assay, Reinach, Switzerland) with bovine serum albumin as standard.
Measurement of mGluR2 positive allosteric modulators properties in rat cortical membranes was performed as follows: rat cortical membrane (1.5 μg) were incubated in 96-well microplates for 15 min at 30° C. in assay buffer (50 mM HEPES pH 7.4, 100 mM NaCl, 5 mM MgCl2, 10 μM GDP, 10 μg/ml saponin, EGTA 0.2 mM) with increasing concentrations of positive allosteric modulator (from 1 nM to 10 μM) and a minimal concentration of DCG-IV or LY379268, a selective mGluR2 agonist, that has been determined in previous experiments and that corresponds to the EC20, a concentration that gives 20% of the maximal response of the agonist, and is in accordance to published data (Pin et al. (1999) Eur. J. Pharmacol. 375:277-294). […]

Male C57BL6/j mice [2] = experiment: PCP-induced locomotor activity in mice (phencyclidine model of schizophrenia); format: in vivo; details: 200 mg/kg i.p., PCP 5 mg/kg s.c., distance traveled over 60 minutes, FIG. 2
Excerpt: PCP-induced increases in locomotor ambulation are a widely accepted animal model of schizophrenia. This model is based on the evidence that phencyclidine induces a schizophrenia-like syndrome in humans including increased motor behaviors, disruption of cognition and impairment of working memory (Steinpreis R E (1996) Behav Br Res. 74:45-55; Abi-Saab et al. (1998) Pharmacopsychiatry, 31:104-109). Further, it has also been shown that antipsychotic drugs that are effective in the treatment of schizophrenia reduce the locomotor activating effect of PCP (Gleason & Shannon (1997) Psychopharmacology, 129:79-84). […]
as §1

T1 sequence (P31421 19-872): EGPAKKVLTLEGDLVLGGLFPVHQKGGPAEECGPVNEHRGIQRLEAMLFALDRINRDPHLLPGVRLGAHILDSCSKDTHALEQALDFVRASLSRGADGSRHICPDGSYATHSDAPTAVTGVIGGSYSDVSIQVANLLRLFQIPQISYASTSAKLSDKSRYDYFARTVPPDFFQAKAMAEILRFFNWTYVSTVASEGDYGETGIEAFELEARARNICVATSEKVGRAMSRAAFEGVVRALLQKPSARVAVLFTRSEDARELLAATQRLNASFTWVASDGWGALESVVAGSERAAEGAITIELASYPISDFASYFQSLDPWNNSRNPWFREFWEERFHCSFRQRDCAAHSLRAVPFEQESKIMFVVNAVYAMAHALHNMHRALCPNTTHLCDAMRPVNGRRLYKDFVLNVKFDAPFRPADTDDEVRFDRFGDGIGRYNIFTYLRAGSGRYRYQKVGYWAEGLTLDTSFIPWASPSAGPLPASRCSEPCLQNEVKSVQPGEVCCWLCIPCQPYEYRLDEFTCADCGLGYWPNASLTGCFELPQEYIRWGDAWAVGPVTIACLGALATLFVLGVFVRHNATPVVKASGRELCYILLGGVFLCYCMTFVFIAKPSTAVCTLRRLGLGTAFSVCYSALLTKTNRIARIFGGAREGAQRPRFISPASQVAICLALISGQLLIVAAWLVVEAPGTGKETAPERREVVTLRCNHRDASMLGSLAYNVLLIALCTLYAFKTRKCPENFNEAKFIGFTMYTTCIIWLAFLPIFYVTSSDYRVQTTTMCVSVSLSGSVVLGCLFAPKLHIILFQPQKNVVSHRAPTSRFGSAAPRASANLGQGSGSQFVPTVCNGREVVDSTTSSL

Compound	ability to increase the [GTPγ35S] binding induced by DCG-IV (native rat mGluR2; 10 μM compound with 50 nM DCG-IV, compared to agonist alone, FIG. 1)	melting point	effect on the increase in locomotor activity induced by amphetamine (Male C57BL6/j mice [1])	agonistic activity in the absence of DCG-IV (native rat mGluR2; 10 μM compound without 50 nM DCG-IV, compared to buffer value, FIG. 1)	effect on the increase in locomotor activity induced by PCP (Male C57BL6/j mice [2])	Activity: left-ward shift of agonist mGluR2 concentration-response curve (native rat mGluR2)
COc1ccc(-c2ccn(Cc3cccc(F)c3)c(=O)c2)cc1 [11-03, 1-(3-Fluorobenzyl)-4-(4-methoxyphenyl)pyridin-2(1H)-one]	–	114 °C	–	–	–	+ (left-ward shift of agonist mGluR2 concentration-response curve [<2])
CC(C)CCn1ccc(-c2cccs2)c(C#N)c1=O [10-28, 1,2-Dihydro-1-isopentyl-2-oxo-4-(thiophen-2-yl)pyridine-3-carbonitrile]	–	123 °C	–	–	–	+++ (left-ward shift of agonist mGluR2 concentration-response curve [>3.5])
CS(=O)(=O)Nc1cccc(-c2ccc(=O)n(Cc3ccc(Cl)cc3)c2)c1 [2-55]	–	169 °C	–	–	–	++ (left-ward shift of agonist mGluR2 concentration-response curve [2- to 3.5-fold])

More lines, main results first:

ability to increase the [GTPγ35S] binding induced by DCG-IV (native rat mGluR2; 10 μM compound with 50 nM DCG-IV, compared to agonist alone, FIG. 1)	melting point	Compound	effect on the increase in locomotor activity induced by amphetamine (Male C57BL6/j mice [1])	agonistic activity in the absence of DCG-IV (native rat mGluR2; 10 μM compound without 50 nM DCG-IV, compared to buffer value, FIG. 1)	effect on the increase in locomotor activity induced by PCP (Male C57BL6/j mice [2])	Activity: left-ward shift of agonist mGluR2 concentration-response curve (native rat mGluR2)
significantly potentiated	88 °C	COc1ccc(-c2ccc(=O)n(Cc3ccc(Cl)cc3F)c2)cc1 [4-16]	significantly attenuated	no statistically significant agonistic activity	significantly attenuated	–
–	142 °C	COc1ccc(-c2ccc(=O)n(Cc3ccc(Cl)cc3)c2)cc1 [4-20]	–	–	–	+++ (left-ward shift of agonist mGluR2 concentration-response curve [>3.5])
–	168 °C	COc1ccc(-c2ccc(=O)n(Cc3ccc(C(F)(F)F)nc3)c2)cc1.Cl [4-47, 5-(4-Methoxyphenyl)-1-((6-(trifluoromethyl)pyridin-3-yl)methyl)-pyridin-2(1H)-one hydrochloride]	–	–	–	+++ (left-ward shift of agonist mGluR2 concentration-response curve [>3.5])
